Data reported in patent US4769461A, “Quinolinyl benzene hydroxamic acids as anti-inflammatory/antiallergic agents” (American Home Products Corporation, priority 1986, dated 1988).
Where two headings read alike, the source gives them in different places.

Key:
[1] = system: carrageenan paw edema (acute inflammatory response); test: Rat carrageenan paw edema assay; format: in vivo, rat (male Sprague-Dawley); conditions: for ED50: Rattus norvegicus, po, read-out: Oral ED50 (95% C.L.) mg/kg; for % Inhibition at 100 mg/kg (peroral): 1 hour prior to carrageenan, edema at 3 hours
Procedure: The compounds of the invention are further tested in the rat carrageenan paw edema assay to determine their ability to inhibit the acute inflammatory response. This assay is carried out as follows: 140-180 gm male Sprague-Dawley rats, in groups of 6 animals are injected subcutaneously in the right paw with 0.1 ml of 1% carrageenan at zero time. Mercury plethysmographic readings (ml) of the paw are made at zero time and 3 hours later. Test compounds are suspended or dissolved in 0.5% methylcellulose and given perorally 1 hour prior to carrageenan administration. The increase in paw volume (edema in ml.) produced by the carrageenan is measured. […] Unpaired Student's t-test is used to determine statistical significance.

[2] = system: synthesis of the lipoxygenase product 5-HETE in rat polymorphonuclear leukocytes; test: Inhibition of 5-HETE synthesis by rat glycogen elicited polymorphonuclear leukocytes; format: cell-based, rat (female Wistar)
Procedure: The assay of this Example measures the ability of the compounds of the invention to inhibit the synthesis of 5-HETE by rat glycogen elicited polymorphonuclear leukocytes.
(§1) The assay is carried out as follows:
(§2) Peritoneal PMN are obtained from female Wistar rats (150-250 g) that received an i.p. injection of 6% glycogen (10 ml). After 24 hours, rats are killed by CO2 asphyxiation and peritoneal cells are harvested by peritoneal lavage using Ca^++ and Mg^++ free Hanks' balanced salt solution (HBSS). The peritoneal exudate is centrifuged at 400 g for 10 minutes. After centrifugation, the lavaged fluid is removed and the cell pellet is resuspended in HBSS containing Ca^++ and Mg^++ and 10 mM L-cysteine at a concentration of 2×10^7 cells/ml. To 1 ml portions of cell suspension, test drugs or vehicle are added and incubated at 37° C. for 10 minutes. Following this preincubation, the calcium ionophore (10 μM), A23187, is added together with 0.5 μCi [14 C] arachidonic acid and further incubated for 10 minutes. The reaction is stopped by the addition of ice cold water (3 ml) and acidifying to pH 3.5. […] After chromatography, the areas associated with 5-HETE standard are identified by autoradiography, cut out and quantitated by liquid scintillation.
The compounds of this invention are tested in this assay at a level of 10 μm. […] Some results are expressed as an IC50 value.

[3] = system: ovalbumin induced bronchospasm mediated by endogenous products of lipoxygenase oxidation of arachidonic acid; test: Inhibition of ovalbumin induced bronchospasm in guinea pigs by endogenous mediators of bronchoconstriction; format: in vivo, guinea pig (male Hartley); conditions: 10 minutes before ovalbumin challenge; for ED50: Cavia porcellus
Procedure: The assay of this Example measures the in vivo ability of the compounds of the invention to inhibit the bronchospasm induced in guinea pigs by endogenous mediators of the bronchoconstriction.
as §1
Male Hartley strain guinea pigs weighing 250-350 g are sensitized to chicken ovalbumin (OA) (10 mg i.p.) on days 1 and 3 and used starting on day 26. The animals are anesthetized with pentobarbital sodium (50 mg/kg, i.p.), bilateral vagotomy is performed, and the jugular vein is cannulated for injection of drugs and the carotid artery for monitoring blood pressure. The trachea is cannulated for artificial ventilation by miniature Starling pump and for indirect measurement of respiratory volume changes. Succinylcholine (2 mg/kg, i.v.) is administered to arrest spontaneous respiration. A cyclooxygenase inhibitor, indomethacin (10 mg/kg in tris buffer, i.v. at 9 min.) is administered to shunt arachidonic metabolism to lipoxygenase pathways. One minute later, chlorpheniramine (1.0 mg/kg in saline, i.v.) is given to attenuate the histaminic component of anaphylactic bronchoconstriction. Test drugs (dissolved in propylene glycol, polyethylene glycol or saline) are administered either intraduodenally, perorally or by aerosol at 2 or 10 minutes before antigen challenge. Anaphylactic bronchoconstriction is induced by administration by breaths of aerosolized OA (1%) or by intravenous administration of 0.1-0.3 mg/kg OA in saline. Control animals receive solvent (2 ml/kg i.d. or appropriate aerosol) in place of drug.
Respiratory volume changes are determined by a calibrated piston whose travel is recorded, via a linear transducer, on a Beckman Dynograph recorder. Maximal bronchoconstrictor volume is determined by clamping off the trachea at the end of the experiment. Overflow volumes at minutes 1, 3 and 5 are obtained from the recorded charts.
Area under the volume overflow curve (AUC) is estimated, using the overflow values at 1, 3 and 5 minutes, and expressed as a percentage of the maximal overflow AUC (equation 1): [formula] Drug effects are reported as percent inhibition of % max AUC values obtained from appropriate control animals (equation 2): [formula] Student's t-test for unpaired data is used to determine statistical significance. Dose response curves are generated and ED50 doses are interpolated from the regression lines.

[4] = system: LTD4 induced bronchoconstriction; test: Inhibition of bronchospasm induced in guinea pigs by exogenously administered leukotrienes C4 and/or D4; format: in vivo, guinea pig (male Hartley); conditions: 10 minutes before induction of bronchospasm; for ED50: Cavia porcellus, read-out: IC50 (the source's name)
Procedure: The assay of this Example measures the in vivo ability of the compounds of the invention to inhibit the bronchospasm induced in guinea pigs by the exogenously administered leukotrienes C4 and/or D4.
This assay is carried out as follows:
Male Hartley strain guinea pigs (350-600 g) are anesthetized with pentobarbital sodium (50 mg/kg, i.p.). The jugular vein is cannulated for injection of drugs and the carotid artery for monitoring blood pressure. The trachea is cannulated for artificial ventilation by a miniature Starling pump and for indirect measurement of respiratory volume changes. The animals are then pretreated with succinylcholine (2 mg/kg i.v.) and indomethacin (10 mg/kg i.v. in trizma 8.3 buffer, 9 minutes prior to leukotriene challenge). Submaximal bronchoconstrictor responses are established in control animals by varying the dose-levels of leukotriene. Intravenous dose-levels for LTC4 range from 0.4 to 0.6 μg/kg and for LTD4 the range is from 0.3 to 0.5 μg/kg. The aerosol bronchoprovocation dose for LTC4 is generated from 1.6 μM solution and for LTD4 from a 2.0 μM solution.
Test drugs (dissolved in a solvent such as propylene glycol, polyethylene glycol 400 or saline) are administered either intraduodenally, by aerosol or perorally at 2 or 10 minutes before induction of bronchospasm by administration of either LTC4 or LTD4 at the predetermined dose-levels. Aerosols of soluble drugs or leukotrienes are produced in-line for 10 seconds only by actuation of an ultrasonic nebulizer (Monaghan). Aerosolized drug dosage is expressed in terms of solution concentration and by a fixed aerosol exposure time (approximately 10 seconds). Control animals receive solvent (2 ml/kg i.d. or appropriate aerosol) in place of drug.
Respiratory volume changes are determined by a calibrated piston whose travel is recorded, via a linear transducer, on a Beckman Dynograph recorder. Maximal bronchoconstrictor volume is determined by clamping off the trachea at the end of the experiment. Overflow volumes at 1, 3 and 5 minutes are obtained from the recorded charts.
Area under the volume overflow curve (AUC) is estimated, using the overflow values at 1, 3 and 5 minutes, and expressed as a percentage of the maximal overflow AUC (equation 1): [formula] Drug effects are reported as percent inhibition of % max AUC values obtained from appropriate control animals (equation 2): [formula]
Student's t-test for unpaired data is used to determine statistical significance (p<0.05). IC50 values can also be determined by inverse prediction from linear regression lines through points between 10 and 90% inhibition.

[5] = system: synthesis of the cyclooxygenase product PGE2 in rat polymorphonuclear leukocytes; test: Inhibition of synthesis of the cyclooxygenase oxidation product PGE2 (procedure of Example 5); format: cell-based, rat (female Wistar); conditions: tested at 10 μm
Procedure: as §2, with “3.5. Lipoxygenase products are then extracted twice into diethyl ether.” for “3.5.”, “scintillation. […]” for “scintillation.”
In this assay, the procedure of Example 5 is carried out as described. […] After chromatography, the areas associated with the PGE2 standard are identified by autoradiography, cut out and quantitated by liquid scintillation techniques.
The results are calculated as in Example 5.

[6] = 25 mg/kg perorally administered

## CC(=O)Oc1ccccc1C(=O)O [Aspirin, reference compound]
[1]
  ED50: 145 mg/kg

## CONC(=O)Cc1cccc(OCc2ccc3ccccc3n2)c1 [Example 1, O-methyl-3-[(2-quinolinyl)methoxy]benzeneaceto hydroxamate]
[2]; Leukocyte, rat PMN
  IC50: 10.5 µM
[3]; 25 mg/kg intraduodenal
  % Inhibition of Max AUC: 56.0%
[3]; [6]
  % Inhibition of Max AUC: 82.8%
[3]; po, perorally administered
  ED50: 2.5 mg/kg
[3]; intraduodenal
  ED50: 7.3 mg/kg
[4]; 25 mg/kg intraduodenally
  % Inhibition: 90.6%
[4]; 25 mg/kg perorally
  % Inhibition: 86.3%
[4]; po, perorally administered
  ED50: 5.9 mg/kg
[4]; intraduodenally administered
  ED50: 1.8 mg/kg
[1]
  % Inhibition at 100 mg/kg (peroral): 50%

## CONC(=O)c1cccc(OCc2ccc3ccccc3n2)c1 [Example 2A, O-methyl-3-[(2-quinolinyl)methoxy]benzoic hydroxyamate]
[3]; 25 mg/kg intraduodenal
  % Inhibition of Max AUC: 76.6%
[3]; [6]
  % Inhibition of Max AUC: -1.5%
[4]; 25 mg/kg intraduodenally
  % Inhibition: 92.8%
[4]; 25 mg/kg perorally
  % Inhibition: 72.4%
[4]; po, perorally administered
  ED50: 13.1 mg/kg
[4]; intraduodenally administered
  ED50: 3.16 mg/kg
[1]
  % Inhibition at 100 mg/kg (peroral): 32%

## O=C(NOCc1ccccc1)c1cccc(OCc2ccc3ccccc3n2)c1 [Example 2B, O-benzyl-3-[(2-quinolinyl)methoxy]benzoic hydroxamate]
[2]; tested at 10 μm
  >50% Inhibitory at 10 μm: + (those compounds having an inhibition of >50% are designated by a "+")
[5]
  >50% Inhibition at 10 μm: + (those compounds having an inhibition of >50% are designated by a "+")
[4]; 25 mg/kg intraduodenally
  % Inhibition: 69.4%
[1]
  % Inhibition at 100 mg/kg (peroral): 42%

## O=C(Cc1cccc(OCc2ccc3ccccc3n2)c1)NOCc1ccccc1 [Example 2C, O-benzyl-3-[(2-quinolinyl)methoxy]benzeneaceto hydroxamate]
[1]
  % Inhibition at 100 mg/kg (peroral): 37%

## CONC(=O)Cc1cccc(OCc2nc3ccccc3n2C)c1 [Example 2D, O-methyl-3-[1-methyl(2-benzimidazoyl)methoxy]benzoaceto hydroxamate]
[5]
  >50% Inhibition at 10 μm: + (those compounds having an inhibition of >50% are designated by a "+")
[1]
  % Inhibition at 100 mg/kg (peroral): 48%

## CONC(=O)Cc1cccc(OCc2nc3ccccc3s2)c1 [Example 2E, O-methyl-3-[(2-benzthiazoyl)methoxy]benzoaceto hydroxamate]
[1]
  % Inhibition at 100 mg/kg (peroral): 38%

## O=C(Cc1cccc(OCc2ccc3ccccc3n2)c1)NO [Example 3, 3-[(2-Quinolinyl)methoxy]benzeneaceto hydroxamic acid]
[4]; 25 mg/kg intraduodenally
  % Inhibition: 10%

## O=C(NO)c1cccc(OCc2ccc3ccccc3n2)c1 [Example 4A, 3-[(2-quinolinyl)methoxy]benzoic hydroxamic acid]
[4]; 25 mg/kg intraduodenally
  % Inhibition: 32.8%

## COc1ccc2c(c1)c(CC(=O)O)c(C)n2C(=O)c1ccc(Cl)cc1 [Indomethacin, reference compound]
[1]
  ED50: 3.7 mg/kg
